# Test results from patent US20060160897A1, “Topical Use of Valproic Acid for the Prevention or Treatment of Skin Disorders” (priority 2003, published 2006).
# What was measured:
# HaCaT cells = experiment: Apoptosis assay, flow cytometry of Sub-G1 DNA containing cells; assay type: cell-based, human; details: drugs day 1, assay day 2, combinations VPA 1 mM + Tazarotene 1 or 2 μM, FIG. 5
# Method: Apoptosis assays: Apoptosis was measured by a Beckton Dickinson FACScalibur flow cytometer by analysing the percentage of Sub-G1 DNA containing cells. 10000 events were recorded for each sample. The amplification scale was linear for all parameters. Photomultiplier tension was set as to place the peak DNA content corresponding cells in G0/G1 at channel 300 in the FL2-H vs SCC—H graphs. Cells showing a less than peak DNA content (hypodiploid cells) and high SSC—H (granular high condensed cells) were regarded as apoptotic. The experiments were repeated three times in duplicate. Error bars represent 1 standard deviation.
# Cells were plated in 35 mm diameter wells on day 0. Drugs were added on day 1. The apoptosis assay was carried out on day 2. […] Thus, the combinatorial activity of these two drugs must be explained via synergistic activity of this treatment.
# histone H4 acetylation = experiment: Immunohistochemistry of acetylated H4 after topical application to BCC lesions of patients; assay type: in vivo, human; details: VPA 3% (w/w) topically 16-20 hours before surgical excision vs placebo; FIG. 10
# Method: Cryostat skin sections of 3 μm thickness were fixed in acetone at room temperature for 10 min. Before staining with anti-acetylated H4 antibody (clone T25, see above) the tissue was blocked by preincubation with F(ab′)2 fragments derived from goat anti-mouse immunoglobulin (Cappel) ( 1/10000 dilution in 50 mM Tris buffered saline, TBS) for 30 min. After rinsing with TBS for 10 min, the sections were incubated with anti-acetylated H4 antibody (clone T25) ( 1/4000 dilution in TBS) at room temperature for 1 hour. Then, the specimens were incubated with the rabbit anti-mouse serum and treated with APAAP (alkaline phosphatase anti-alkaline phosphatase) immunocomplex as described above. The positive staining was developed in red color with naphthol-AS-BI phosphate as a substrate, and New Fuchsin (Dako) as a chromogen. Pictures were taken with a digital camera connected to a light microscopy apparatus.
# Skin biopsies were frozen in liquid nitrogen immediately after excision. Immunohistochemistry was then performed on 3 μm sections as described in methods. Biopsies of skin topically treated with Placebo or VPA were processed in parallel, pictures were taken with a light microscopy apparatus connected to a digital camera under the same light intensity.
# inflammatory cytokines = experiment: Semiquantitative RT-PCR of cytokine mRNA, PMA/Ion stimulated peripheral blood lymphocytes; assay type: cell-based, human; details: PBLs preincubated 2 hours, PMA/Ion 24 hours; FIGS. 12B, 13
# Method: (§1) Monocyte and macrophage depleted peripheral blood mononuclear cells were obtained from consenting adults via separation using Ficoll-Hypaque. The peripheral blood mononuclear cells (PBMC) fraction was washed and seeded in 9 cm petri dishes. After an incubation of 2 hours at 37° C. to remove most of the monocytes, macrophages, and B-cells, the non-adherent cells were collected and cultured in 175 cm^2 flasks for 2 days. Cells were harvested and adjusted to 3 million cells per ml. Aliquots of 500 μl were transferred to each well of 24-well flat bottom plates. Peripheral blood lymphocytes (PBL's) were treated with various concentrations of HDAC inhibitors as indicated. After a 2 hours incubation time at 37° C. cells were stimulated with phorbol 12-myristate 13-acetate (PMA)/ionomycin (Ion) or activated via T cell receptor (TCR/CD3) complex with 10 μg/ml anti-CD3 mAb (OKT3) and 2.5 μg/ml anti-CD28 mAb. After 24 hours at 37° C. the supernatant was removed and frozen for cytokine assays. Cell pellets were lysed and total RNA was isolated using the RNeasy mini kit from Qiagen.
# One microgram of total RNA was transcribed to cDNA by standard methods using reverse transcriptase and an oligo-dT primer (Invitrogen). For semiquantitative PCR, 2 μl of cDNA was amplified by PCR using specific primers. Primers for PCR were synthesized by MWG and are as follows: […]
# IL-2 and TNF-α = IL-2 and TNF-α ELISA, supernatants of stimulated peripheral blood lymphocytes; assay type: cell-based, human
# Method: as §1
# To perform ELISAs, supernatants of treated and untreated PBL's were collected and IL-2 as well as TNF-α were measured using the Duo Set ELISA Development System (R&D Systems) as described by the manufacturer.
# [1] = 1 mM, other experiments, PBLs stimulated with PMA/ION and CD3/CD28 mAbs, FIG. 16
# [2] = PBLs, increasing concentrations two hours, CD3 and CD28 mAbs 24 hours, FIG. 15
smiles,measurement,setting,value
"CCCC(CCC)C(=O)O [VPA, 2-propyl-pentanoic acid]",apoptosis (Sub-G1 DNA containing cells),HaCaT cells,clear increase in subG1 DNA content
same,histone H4 acetylation in BCC cells and normal skin cells of patients,histone H4 acetylation,clear increase of histone H4 acetylation
same,IL-4 mRNA transcripts,inflammatory cytokines,significantly reduced
same,IL-6 mRNA transcripts,inflammatory cytokines,decreased IL-6 mRNA back to the level seen in the unstimulated sample
same,IL-2 secretion,"IL-2 and TNF-α; 0.5 mM, PBLs, CD3/CD28, FIG. 15",only moderate effect
same,IL-2 secretion,"IL-2 and TNF-α; 1 mM, PBLs, CD3/CD28, FIG. 15",only moderate effect
same,IL-2 secretion,IL-2 and TNF-α; [1],significant decrease
same,TNF-α secretion,IL-2 and TNF-α; [1],significant decrease
same,IL-2 secretion,"IL-2 and TNF-α; 5 mM, PBLs, CD3/CD28, FIG. 15",significantly reduced
same,"IL-2 secretion, dose-response",IL-2 and TNF-α; [2],dose-dependent inhibition
same,"TNF-α secretion, dose-response",IL-2 and TNF-α; [2],dose-dependent inhibition
